# Experimental data published in patent US20240299373A1, “IMPROVED USE OF TRADIPITANT IN MOTION SICKNESS” (Vanda Pharmaceuticals Inc., priority 2023, published 2024).
# Tests used:
# [1] = molecular target: T1, NK-1 receptor (Meriones unguiculatus, UniProt Q5DUB1); test: NK-1 agonist (GR73632, icv)-induced foot-tapping behavior in gerbils; type: in vivo; conditions: gerbil, 0.1 mg/kg po
# T1 construct: centrally acting NK-1 receptor antagonist in vivo in the gerbil; from tissue; host or cells: brain of living Mongolian gerbils
# T1 sequence (Q5DUB1 whole entry): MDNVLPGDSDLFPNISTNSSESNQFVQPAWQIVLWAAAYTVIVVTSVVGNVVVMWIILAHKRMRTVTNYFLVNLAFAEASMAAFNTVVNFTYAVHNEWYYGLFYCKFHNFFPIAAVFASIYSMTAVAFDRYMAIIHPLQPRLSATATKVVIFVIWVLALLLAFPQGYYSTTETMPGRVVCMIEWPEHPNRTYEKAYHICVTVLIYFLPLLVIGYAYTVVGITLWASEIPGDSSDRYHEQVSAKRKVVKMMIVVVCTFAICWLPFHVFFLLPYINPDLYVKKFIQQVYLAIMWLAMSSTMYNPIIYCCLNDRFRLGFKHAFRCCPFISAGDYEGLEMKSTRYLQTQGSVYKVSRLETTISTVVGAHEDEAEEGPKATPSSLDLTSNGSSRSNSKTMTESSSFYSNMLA
# Description: Male Mongolian gerbils (Harlan Sprague Dawley, Indianapolis, IN) weighing 26 to 40 grams are administered the selective neurokinin-1 receptor agonist GR73632 (3 pmol) via direct, vertical, free-hand intracerebroventricular (icy) injection to a depth of 4.5 mm below bregma with a cuffed 27-gauge needle attached to a 50 μl Hamilton syringe. Immediately after injection, animals are placed individually into isolated chambers with pressure-sensitive velocimeter platform floors (San Diego Instruments acoustic startle apparatus) that detect and quantify vibration. The San Diego Instruments “SR” DOS-based computer program is used on a PC to record the number of foot-taps over the following 6 to 10 minutes, beginning 30 seconds after the floor is lightly tapped. […] The total number and average intensity of events over the duration is determined. Total number of taps is analyzed with one-way ANOVA and post-hoc Dunnett's test using JMP statistical software.
# A dose-response curve (with doses of 0.3, 1, 3 and 10 pmols, icy) is initially generated with the NK-1 agonist GR73632.
# NK-1 antagonists are tested for their ability to attenuate GR73632-induced foot tapping. NK-1 antagonists are administered (po) via oral feeding tube at doses and time points specified in each experiment. […]
# NK-1 antagonists are administered at multiple doses (at least 3; one dose per animal) and response to GR73632 is measured. […]
# [2] = molecular target: T2, NK-2 receptor (Homo sapiens, UniProt P21452); test: NK-2 receptor inhibition; type: binding
# T2 sequence (P21452 1-398): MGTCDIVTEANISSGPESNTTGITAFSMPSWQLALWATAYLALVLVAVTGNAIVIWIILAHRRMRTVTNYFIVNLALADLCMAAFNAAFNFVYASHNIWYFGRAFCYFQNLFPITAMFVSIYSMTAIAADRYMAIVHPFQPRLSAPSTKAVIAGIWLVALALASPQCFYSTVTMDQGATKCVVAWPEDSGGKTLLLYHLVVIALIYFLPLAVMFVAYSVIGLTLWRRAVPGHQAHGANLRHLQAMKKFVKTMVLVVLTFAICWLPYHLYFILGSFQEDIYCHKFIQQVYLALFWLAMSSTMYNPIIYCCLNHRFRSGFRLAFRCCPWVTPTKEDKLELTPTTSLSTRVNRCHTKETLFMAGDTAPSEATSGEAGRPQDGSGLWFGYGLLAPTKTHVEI
# [3] = tested on: motion sickness; test: Clinical study of motion sickness prevention during sea travel; type: in vivo, human; conditions: for study participants experiencing vomiting: tradipitant arm 170 mg
# Description: A randomized, double blind, placebo-controlled clinical study of motion sickness is conducted, in which 126 human subjects (“study participants”), each having a prior history of motion sickness, are subjected to sea travel in the Pacific Ocean under varied weather conditions. Study participants are distributed over seven (7) four-hour boat trips off the coast of Los Angeles, California, USA. For each trip, sea conditions and participant self-evaluation of symptoms of motion sickness are recorded. Among the seven trips, three are under “rough” sea conditions, conducive to producing motion sickness with wave heights above one meter. The remaining four trips are made under “calm” conditions, with wave heights less than one meter, and are less likely to produce motion sickness. Under “rough” sea conditions, 72.2% of the placebo treated patients experience vomiting compared to only 26.7% under “calm” conditions. Subjects are randomized 1:1 to receive either tradipitant 170 mg or placebo by mouth in a blinded fashion, prior to travel initiation. Participants report their symptoms at predetermined time intervals of every 30 minutes during the travel period using the Motion Sickness Severity Scale (MSSS) and other assessments. Primary end points of the study include: percentage of participants vomiting, and Motion Sickness Severity Scale (MSSS) Worst score. The MSSS is a 7 point scale ranging from 0 (“no symptoms”) to 6 (“vomiting”). An exploratory analysis is also performed to evaluate the effects of tradipitant under “calm” and “rough” seas. In the study described above in Example 3, further analysis is conducted with respect to study participants' ethnic backgrounds, in particular, whether study participants are Hispanic or non-Hispanic, e.g., white (non-Hispanic), Black or African American (non-Hispanic), American Indian and Alaska Native (non-Hispanic), Asian (non-Hispanic), Native Hawaiian and other Pacific Islander (non-Hispanic), some other race (non-Hispanic), or multi-racial (non-Hispanic). Results are analyzed based on study participants' self-reported ethnic backgrounds.
# [4] = molecular target: T3, NK-3 receptor (Homo sapiens, UniProt P29371); test: NK-3 receptor inhibition; type: binding
# T3 sequence (P29371 1-465): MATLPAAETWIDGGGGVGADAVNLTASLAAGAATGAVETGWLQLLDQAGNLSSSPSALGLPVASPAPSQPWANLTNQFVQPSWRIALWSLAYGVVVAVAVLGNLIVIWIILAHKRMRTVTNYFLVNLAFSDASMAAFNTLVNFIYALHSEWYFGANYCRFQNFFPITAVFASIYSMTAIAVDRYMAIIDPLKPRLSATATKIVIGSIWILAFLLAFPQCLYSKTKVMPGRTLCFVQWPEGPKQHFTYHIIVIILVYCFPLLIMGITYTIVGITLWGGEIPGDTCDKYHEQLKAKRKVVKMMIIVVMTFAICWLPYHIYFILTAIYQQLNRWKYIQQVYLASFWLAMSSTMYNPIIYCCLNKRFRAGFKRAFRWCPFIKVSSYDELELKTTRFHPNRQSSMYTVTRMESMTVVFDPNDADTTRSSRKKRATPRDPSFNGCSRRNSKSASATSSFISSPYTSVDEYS
structure (smiles),measurement,setting,value
"O=C(c1ccccc1Cl)c1cccnc1-c1nnn(Cc2cc(C(F)(F)F)cc(C(F)(F)F)c2)c1-c1ccncc1 [Tradipitant, {2-[1-(3,5-bistrifluoromethylbenzyl)-5-pyridin-4-yl-1H-[1,2,3]triazol-4-yl]-pyridin-3-yl}-(2-chlorophenyl)-methanone]",time after administration up to which foot-tapping behavior is significantly inhibited,[1],up to 7 hours
same,inhibition at NK-2 receptor,[2],no significant inhibition
same,"% Vomiting, Difference placebo vs tradipitant","[3]; Calm Sea, P-value 0.3123",8.5%
same,"Worst MSSS, Difference placebo vs tradipitant","[3]; Calm Sea, P-value 0.8271",−0.09
same,Worst MSSS,"[3]; Calm Sea, n = 44, 170 mg by mouth, placebo 3.32",3.4
same,Worst MSSS,"[3]; Calm Sea, n = 44, 170 mg by mouth, placebo 3.32, listed as tradipitant",3.40
same,% Vomiting,"[3]; Calm Sea, n = 44, 170 mg by mouth, placebo 26.7%",18.2%
same,% Vomiting,"[3]; Calm Sea, n = 44, 170 mg by mouth, placebo 26.7%, listed as tradipitant",18.2%
same,study participants experiencing vomiting,"[3]; Hispanic participants, placebo 33.3%",4.5%
same,"% Vomiting, Difference placebo vs tradipitant","[3]; ITT, P-value 0.0039",22.2%
same,"Worst MSSS, Difference placebo vs tradipitant","[3]; ITT, P-value 0.2936",0.35
same,Worst MSSS,"[3]; ITT, n = 63, 170 mg by mouth, placebo 3.75",3.40
same,Worst MSSS,"[3]; ITT, n = 63, 170 mg by mouth, placebo 3.75, listed as tradipitant",3.4
same,% Vomiting,"[3]; ITT, n = 63, 170 mg by mouth, placebo 39.7%",17.5%
same,% Vomiting,"[3]; ITT, n = 63, 170 mg by mouth, placebo 39.7%, listed as tradipitant",17.5%
same,"% Vomiting, Difference placebo vs tradipitant","[3]; Rough Sea, P-value 0.0009",56.4%
same,"Worst MSSS, Difference placebo vs tradipitant","[3]; Rough Sea, P-value 0.0235",1.38
same,Worst MSSS,"[3]; Rough Sea, n = 19, 170 mg by mouth, placebo 4.57",3.19
same,% Vomiting,"[3]; Rough Sea, n = 19, 170 mg by mouth, placebo 72.2%",15.8%
same,% Vomiting,"[3]; Rough Sea, n = 19, 170 mg by mouth, placebo 72.2%, listed as tradipitant",15.8%
same,study participants experiencing vomiting,"[3]; non-Hispanic participants, placebo 42.8%",24.4%
same,inhibition at NK-3 receptor,[4],no significant inhibition
